Source: US9556159B2, “Renin inhibitor” (MITSUBISHI TANABE PHARMA CORPORATION, priority 2012, dated 2017)

Target: T1, Recombinant human renin (Homo sapiens, UniProt P00797)
T1 sequence (P00797 67-406): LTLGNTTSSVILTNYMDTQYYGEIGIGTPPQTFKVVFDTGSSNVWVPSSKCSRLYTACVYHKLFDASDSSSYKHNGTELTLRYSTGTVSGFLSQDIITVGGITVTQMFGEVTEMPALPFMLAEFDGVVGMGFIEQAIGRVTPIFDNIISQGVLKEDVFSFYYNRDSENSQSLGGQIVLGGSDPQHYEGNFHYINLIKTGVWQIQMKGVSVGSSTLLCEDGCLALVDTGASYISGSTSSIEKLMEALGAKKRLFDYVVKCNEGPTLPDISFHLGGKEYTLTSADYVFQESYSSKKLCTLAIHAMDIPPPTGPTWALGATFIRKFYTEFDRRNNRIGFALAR
Experiment: Inhibitory activity against human renin (fluorogenic peptide substrate)
Type: biochemical
Settings: 50% inhibitory concentration (IC50) against human renin, 37° C. for 1 hour

IC50	Compound
0.5 nM	COC[C@H]1CO[C@@H](C(=O)N(C2CC2)[C@H](C)c2cn(CCCNC(=O)OC)c(C3CCCCC3)n2)CN1 [Example 289]
0.4 nM	COC[C@@H]1CNC[C@H](C(=O)N(C2CC2)[C@H](C)c2cn(CCCNC(=O)OC)c(C3CCCCC3)n2)O1 [Example 290]
7.7 nM	COC(=O)NCCCn1nc([C@@H](C)N(C(=O)[C@H]2CNC[C@@H](C(C)(C)O)O2)C2CC2)c2ccc(C)nc21 [Example 293]
6 nM	CCCCCc1cc([C@@H](C)N(C(=O)[C@H]2CNC[C@@H](C)O2)C2CC2)sc1-c1ccccc1-c1nn[nH]n1 [Example 294]
7 nM	C[C@@H]1CNC[C@H](C(=O)N(C2CC2)[C@H](C)c2cc(Cc3ccccc3)c(-c3ccccc3-c3nnn[nH]3)s2)O1 [Example 296]
0.5 nM	COC(=O)NCCCc1cc([C@@H](C)N(C(=O)[C@H]2CNCCO2)C2CC2)sc1-c1ccccc1NS(=O)(=O)C(F)(F)F [Example 297]
0.6 nM	COC[C@@H]1CNC[C@H](C(=O)N(C2CC2)[C@H](C)c2cc(CCCNC(=O)OC)n(C(C)C)n2)O1 [Example 301]
0.8 nM	COC[C@@H]1CNC[C@H](C(=O)N(C2CC2)[C@H](C)c2cc(CCCNC(=O)OC)n(C3CCOCC3)n2)O1 [Example 303]
6.6 nM	COC(=O)NCCCn1nc([C@@H](C)N(C(=O)[C@H]2CN[C@H](CC(F)F)CO2)C2CC2)c2ccc(C)nc21 [Example 307]
0.5 nM	COC(=O)NCCCc1cc([C@H](C)N(C(=O)[C@H]2CNC[C@@H](CO)O2)C2CC2)cc(OC)n1 [Example 308]
0.4 nM	CCOC[C@@H]1CNC[C@H](C(=O)N(C2CC2)[C@@H](C)c2cc(CCCNC(=O)OC)nc(OC)c2)O1 [Example 311]
0.7 nM	CCOC[C@@H]1CNC[C@H](C(=O)N(C2CC2)[C@@H](C)c2nn(CCCNC(=O)OC)c3nc(C)ccc23)O1 [Example 312]
2.5 nM	COC(=O)NCCCn1cc([C@H](C)N(C(=O)[C@H]2CNCCO2)C2CC2)nc1Oc1ccccc1 [Example 313]
1.4 nM	COC(=O)NCCCc1cc([C@H](C)N(C(=O)[C@H]2CNC[C@@H](CC#N)O2)C2CC2)cc(OC)n1 [Example 316]
0.6 nM	COC(=O)NCCCc1cc([C@H](C)N(C(=O)[C@H]2CNCCO2)C2CC2)cnc1C1CCOCC1 [Example 317]
1.3 nM	COC(=O)NCCCn1cc([C@H](C)N(C(=O)[C@H]2CN[C@@H](CC(F)F)CO2)C2CC2)nc1C1CCOCC1 [Example 318]
5.6 nM	COC(=O)NCCCc1cc([C@H](C)N(C(=O)[C@H]2CNC[C@@H](CN(C)C)O2)C2CC2)cc(OC)n1 [Example 321]
1.5 nM	COC[C@H]1CO[C@@H](C(=O)N(C2CC2)[C@@H](C)c2cn(CCCNC(=O)OC)c(C3CCOCC3)n2)CN1 [Example 322]
2 nM	COC[C@H]1CO[C@@H](C(=O)N(C2CC2)[C@@H](C)c2cc(C3CCOCC3)n(CCCNC(=O)OC)n2)CN1 [Example 323]

IC50	Compound
0.6 nM	COC[C@@H]1CNC[C@H](C(=O)N(C2CC2)[C@H](C)c2cc(CCCNC(=O)OC)nc(C(F)(F)F)c2)O1 [Example 324]
0.7 nM	COC(=O)NCCCc1cc([C@@H](C)N(C(=O)[C@H]2CNCCO2)C2CC2)cc(C(F)(F)F)n1 [Example 325]
2.9 nM	COC[C@H]1CO[C@@H](C(=O)N(C2CC2)[C@@H](C)c2nn(CCCNC(=O)OC)c(C3CCOCC3)c2C)CN1 [Example 327]
1.1 nM	COC[C@H]1CO[C@@H](C(=O)N(C2CC2)[C@@H](C)c2nn(CCCNC(=O)OC)c(C3CCOCC3)c2F)CN1 [Example 328]
0.8 nM	CCc1cc([C@H](C)N(C(=O)[C@H]2CNC[C@@H](COC)O2)C2CC2)cc(CCCNC(=O)OC)n1 [Example 329]
0.3 nM	COC[C@@H]1CNC[C@H](C(=O)N(C2CC2)[C@@H](C)c2nn(CCCNC(=O)OC)c(C3CCOCC3)c2F)O1 [Example 330]
2.3 nM	COC[C@H]1CO[C@@H](C(=O)N(C2CC2)[C@@H](C)c2cc(OC(C)C)n(CCCNC(=O)OC)n2)CN1 [Example 331]
0.3 nM	COC(=O)NCCCn1cc([C@H](C)N(C(=O)[C@H]2CNC[C@@H](C)O2)C2CC2)nc1C1CCCCC1 [Example 333]
0.9 nM	COC(=O)NCCCn1cc([C@H](C)N(C(=O)[C@H]2CN[C@@H](C)CO2)C2CC2)nc1C1CCCCC1 [Example 335]
0.4 nM	COC(=O)NCCCn1cc([C@H](C)N(C(=O)[C@H]2CNC[C@@H](COCc3ccccc3)O2)C2CC2)nc1C1CCOCC1 [Example 339]
0.3 nM	COC(=O)NCCCn1cc([C@H](C)N(C(=O)[C@H]2CN[C@@H](CCF)CO2)C2CC2)nc1OC(C)C [Example 341]
0.4 nM	COC(=O)NCCCc1cc([C@@H](C)N(C(=O)[C@H]2CNC[C@@H](C)O2)C2CC2)cc(C2CC2)n1 [Example 342]
0.4 nM	COC(=O)NCCCc1cc([C@@H](C)N(C(=O)[C@H]2CNC[C@@H](C)O2)C2CC2)nn1-c1cccc(C)c1 [Example 344]
0.4 nM	COC(=O)NCCCc1cc([C@@H](C)N(C(=O)[C@H]2CNC[C@@H](C)O2)C2CC2)nn1-c1ccccc1C [Example 345]
1.3 nM	COC(=O)NC/C=C/c1cc([C@@H](C)N(C(=O)[C@H]2CNC[C@@H](C)O2)C2CC2)nn1-c1cccc(Cl)c1 [Example 346]
0.7 nM	COC(=O)NCCCc1cc([C@@H](C)N(C(=O)[C@H]2CNC[C@@H](C)O2)C2CC2)nn1-c1cccc(F)c1F [Example 347]
0.7 nM	COC(=O)NCCCc1cc([C@@H](C)N(C(=O)[C@H]2CNCCO2)C2CC2)nn1-c1cccc(C(F)(F)F)c1 [Example 348]
1.9 nM	COC(=O)NCCCc1cc(C(C)N(C(=O)[C@H]2CNC[C@@H](C)O2)C2CC2)nn1-c1ccccc1C(F)(F)F (stereo partly drawn) [Example 350]

Further lines, the molecule ahead of its results:

Compound	IC50
COC(=O)NCCCn1cc([C@@H](C)N(C(=O)[C@H]2CNCCO2)C2CC2)nc1C1CCOCC1 [Example 291]	0.6 nM
COC[C@@H]1CNC[C@H](C(=O)N(C2CC2)[C@H](C)c2cn(CCCNC(=O)OC)c3ncccc23)O1 [Example 292]	0.4 nM
COC[C@H]1CO[C@@H](C(=O)N(C2CC2)[C@H](C)c2cn(CCCNC(=O)OC)c3ncccc23)CN1 [Example 295]	1.5 nM
COC(=O)NCCCc1nc(OC)cc([C@@H](C)N(C(=O)[C@H]2CNCCO2)C2CC2)n1 [Example 298]	3.5 nM
COC(=O)NCCCn1cc([C@@H](C)N(C(=O)[C@H]2CN[C@@H](COCc3ccccc3)CO2)C2CC2)nc1C1CCOCC1 [Example 299]	0.9 nM
COC[C@H]1CO[C@@H](C(=O)N(C2CC2)[C@H](C)c2cc(CCCNC(=O)OC)n(C(C)C)n2)CN1 [Example 300]	2.8 nM
COC[C@H]1CO[C@@H](C(=O)N(C2CC2)[C@H](C)c2cc(CCCNC(=O)OC)n(C3CCOCC3)n2)CN1 [Example 302]	1.6 nM
COCCCCc1cc([C@@H](C)N(C(=O)[C@H]2CNC[C@@H](COC)O2)C2CC2)cc(OC)n1 [Example 304]	0.7 nM
COC(=O)NCCCn1nc([C@@H](C)N(C(=O)[C@H]2CN[C@@H](CC(F)F)CO2)C2CC2)c2ccc(C)nc21 [Example 305]	1.2 nM
COC(=O)NCCCc1cc([C@@H](C)N(C(=O)[C@H]2CN[C@@H](CC(F)F)CO2)C2CC2)cc(OC)n1 [Example 306]	1.6 nM
COC[C@H]1CO[C@@H](C(=O)N(C2CC2)[C@@H](C)c2cnc(OC)c(CCCNC(=O)OC)c2)CN1 [Example 309]	7.1 nM
COC[C@@H]1CNC[C@H](C(=O)N(C2CC2)[C@@H](C)c2cnc(OC)c(CCCNC(=O)OC)c2)O1 [Example 310]	0.4 nM
COC(=O)NCCCc1cc([C@H](C)N(C(=O)[C@H]2CNC[C@@H](CF)O2)C2CC2)cc(OC)n1 [Example 314]	0.5 nM
COC(=O)NCCCc1cc([C@H](C)N(C(=O)[C@H]2CNCCO2)C2CC2)cnc1C(C)C [Example 315]	1 nM
COC(=O)NCCCn1cc([C@@H](C)N(C(=O)[C@H]2CNCCO2)C2CC2)nc1C(F)(F)F [Example 319]	3.5 nM
COC[C@@H]1CNC[C@H](C(=O)N(C2CC2)[C@H](C)c2cn(CCCNC(=O)OC)c(C(F)(F)F)n2)O1 [Example 320]	3.2 nM
COC(=O)NCCCn1nc([C@H](C)N(C(=O)[C@H]2CNCCO2)C2CC2)cc1OC(C)C [Example 326]	0.4 nM
COC(=O)NCCCn1nc([C@@H](C)N(C(=O)[C@H]2CN[C@@H](CCF)CO2)C2CC2)c2ccc(C)nc21 [Example 332]	0.4 nM
COC(=O)NCCCc1cc([C@H](C)N(C(=O)[C@H]2CNC[C@@H](COc3ccccc3)O2)C2CC2)nn1C1CCOCC1 [Example 334]	0.3 nM
CC[C@H]1CO[C@@H](C(=O)N(C2CC2)[C@@H](C)c2cn(CCCNC(=O)OC)c(OC(C)C)n2)CN1 [Example 336]	1.6 nM
COC[C@@H]1CNC[C@H](C(=O)N(C2CC2)[C@@H](C)c2nn(CCCNC(=O)OC)c(-c3ccccn3)c2C)O1 [Example 337]	1.2 nM
COC[C@H]1CO[C@@H](C(=O)N(C2CC2)[C@@H](C)c2nn(CCCNC(=O)OC)c(-c3ccccn3)c2C)CN1 [Example 338]	5.3 nM
COC(=O)NCCCc1cc([C@H](C)N(C(=O)[C@H]2CNC[C@@H](CF)O2)C2CC2)nn1C1CCOCC1 [Example 340]	0.7 nM
COC(=O)NCCCc1nc(C(C)N(C(=O)[C@H]2CNCCO2)C2CC2)c(C)n1-c1ccccc1 (stereo partly drawn) [Example 343]	5.3 nM
COC(=O)NCCCc1cc([C@@H](C)N(C(=O)[C@H]2CNC[C@@H](C)O2)C2CC2)nn1-c1cccc(C(F)(F)F)c1 [Example 349]	1.1 nM
COC(=O)NCCCc1cc([C@@H](C)N(C(=O)[C@H]2CNC[C@@H](C)O2)C2CC2)nn1-c1ccc(F)cc1 [Example 351]	0.4 nM
